Data published in patent US20040029944A1 (priority 2001, published 2004).
Where two headings read alike, the source gives them in different places.

System: Phytophthora infestans
Format: in vivo
Details: individual active compound, tomato leaves, protective, evaluated after 6 days

For `Cc1ccc(-c2c(Cl)nc(C#N)n2S(=O)(=O)N(C)C)cc1` [Ia, cyazofamid], which “Efficacy in % of the untreated control” value (0.05 ppm in the spray liquor) is on record?
The value was 58%.

What about the “Efficacy in % of the untreated control” value (0.1 ppm in the spray liquor) of the same compound?
Its value is 74%.

And the “Efficacy in % of the untreated control” value (0.2 ppm in the spray liquor)?
The value was 84%.
